The text below walks through data of US20250263441A1 (Metanovas Biotech Inc., priority 2024, published 2025).

Several values for one entry are separate records, joined by “and”; a condition that tells them apart may be missing. Equal values may be shown once.

Assay type in all cases: cell-based
Data set [1] relates to rabbit blood erythrocytes. The experiment in a line: Measurement of hemolytic concentration. To be noted: for Hemolysis rate: 37° C., 1 hour, replicate wells. The protocol: 4 mL of 2% rabbit blood erythrocytes were washed twice with 4 mL PBS and centrifuged at 3000 rpm for 5 minutes. The supernatant was discarded, and the rabbit blood erythrocytes were resuspended in 4 mL PBS. 160 μg of the peptides from Examples 1 to 2, FK13, and HPA3NT3 were independently dissolved in 1 mL PBS buffer to prepare the peptide mother solutions with a concentration of 160 μg/mL. Subsequently, the peptide mother solutions were diluted with PBS buffer to concentrations of 80 μg/mL, 64 μg/mL, 32 μg/mL, 16 μg/mL, and 8 μg/mL. 100 μL of the 2% rabbit blood erythrocytes and 100 μL of different concentrations of peptides (80 μg/mL, 64 μg/mL, 32 μg/mL, 16 μg/mL, 8 μg/mL) were added to each well of a 96-well plate. In the negative control, 100 μL of PBS buffer was added, while in the positive control, 100 μL of 0.1% (w/v) Triton X-100 was added. Three replicate wells were set up for each group and incubated at 37° C. for 1 hour. The 96-well plate was then removed, centrifuged at 3000 rpm for 5 minutes, and 100 μL of supernatant was aspirated and transferred to a new 96-well plate. The absorbance was measured at 540 nm using an enzyme meter. Hemolysis rate (%)=((Absorbancesample−Absorbancenegative)/(Absorbancepositive−Absorbancenegative))*100%.

In data set [2] the test system is Propionibacterium acnes (ATCC: 6919). The experiment in a line: Inhibitory effect of AMP-33 on Propionibacterium acnes (viability, OD 630 nm). Also on record: Viability of Propionibacterium acnes: unit: %. The settings on record: for Viability of Propionibacterium acnes: 48 hours, repeated experiments. How it is done:
(1) Propionibacterium acnes was inoculated into Wilkins Chalgren liquid medium and cultured overnight under anaerobic conditions at 37° C. (Labiophy HL-B fully automated anaerobic workstation).
(2) 200 μL of the Wilkins Chalgren liquid culture medium and a predetermined concentration of the peptide AMP-33 were added to a 96-deep-well plate. Then, 10 μL of Propionibacterium acnes was inoculated (mix well before inoculation).
(3) After 48 hours of cultivation under anaerobic conditions at 37° C., the turbidity of the bacterial solution was observed. Then, 100 μL of the solution was taken, and the OD at 630 nm was measured using the enzyme-linked immunosorbent assay (ELISA) reading plate (after multiple blows and mixing).
(§1) [formula] • OD Measurement: OD value of the test peptide. • ODneg: OD value with no bacterial inoculation, containing only […] medium. • ODpos: OD value with bacterial inoculation and without inhibitors.

Data set [3] has as its system Escherichia coli (ATCC: 25922). The experiment in a line: Inhibitory effect of AMP-33 on Escherichia coli (viability, OD 630 nm). The settings on record: for Viability of Escherichia coli: 24 hours, repeated experiments. How it is done:
(§2) (1) Staphylococcus aureus and Escherichia coli were inoculated into LB liquid medium and cultured overnight under aerobic conditions at 37° C. and […] on a shaker.
(§3) (2) 200 μL of LB liquid culture medium and a predetermined concentration of peptide AMP-33 were added to a 96-deep-well plate. Then, 10 μL of the Staphylococcus aureus/Escherichia coli solution was inoculated (mixed well before inoculation).
(§4) (3) After incubating at […] for 24 hours on a shaking table at 37° C., the turbidity of the bacterial solution was observed. A volume of 100 μL of the solution was taken, and the OD at 630 nm was measured using an enzyme-linked immunosorbent assay (ELISA) reader (after multiple blows and mixing).
as §1

Data set [4] relates to Staphylococcus aureus (ATCC: 25913). The experiment in a line: Inhibitory effect of AMP-33 on Staphylococcus aureus (viability, OD 630 nm). The settings on record: for Viability of Staphylococcus aureus: 24 hours, repeated experiments. The protocol: as §2, §3, §4, §1
Data set [5] has as its system Candida albicans (ATCC: 14053). Put plainly: Inhibitory effect of AMP-33 on Candida albicans (viability, OD 630 nm). The settings on record: 8 μg/mL, 28 hours; repeated experiments. How it is done: (1) Candida albicans was inoculated into YM liquid medium and cultured overnight under aerobic conditions at 28° C. and […] on a shaker.
(2) 200 μL of YM liquid culture medium and a predetermined concentration of peptide AMP-33 were added to a 96-deep-well plate. Then, 10 μL of the Candida albicans solution was inoculated (mixed well before inoculation).
(3) After incubating at […] for 28 hours on a shaking table at 28° C., the turbidity of the bacterial solution was observed. A volume of 100 μL of the solution was taken, and the OD at 630 nm was measured using an enzyme-linked immunosorbent assay (ELISA) reader (after multiple blows and mixing).
as §1

The test system of another data set is Streptococcus mutans. Put plainly: Inhibitory effect of AMP-33 on Streptococcus mutans. To be noted: 5 and 10 μg/mL, 16 hours. How it is done: (1) Streptococcus mutans was cultured to the logarithmic phase, then 5 mL of the bacterial solution was centrifuged at 5,000 g for 10 minutes. The organisms were resuspended in Brain-Heart Infusion (BHI) medium, and the concentration of the bacterial solution was adjusted to approximately 2×10^5 CFU/mL using pre-configured McClure's turbidimetric tubes.
(2) Streptococcus mutans was cultured in a microtiter plate (96 wells), and 50 μL of different AMP33 peptides were added (at concentrations of 5 and 10 μg/mL). Then, 100 μL of diluted Streptococcus mutans bacterial fluid was added, followed by 50 μL of BHI medium, resulting in a final concentration of 1×10^5 CFU/mL.
(3) A blank control was provided with equal amounts of medium solution and bacterial solution as that of the experimental group, with at least 3 replicates for each treatment group.
(4) The 96-well plate was placed in a bacterial incubator at 37° C. and incubated at 150 rpm for 16 hours.

In another data set the test system is Helicobacter pylori. The experiment in a line: Inhibitory effect of AMP-33 on Helicobacter pylori. To be noted: 5 and 10 μg/mL, 48 hours. How it is done:
(1) Helicobacter pylori was cultured to the logarithmic phase. Then, 4.5 mL of the bacterial solution was centrifuged at 5,000 g for 6 minutes, and the organisms were resuspended in Wilkins-Chalgren medium. The concentration of the bacterial solution was adjusted to approximately 2× 10^5 CFU/mL using pre-configured McClure's turbidimetric tubes.
(2) Helicobacter pylori was cultured in a microtiter plate (96 wells), and 50 μL of different AMP33 peptides were added (at concentrations of 5 and 10 μg/mL). Next, 100 μL of diluted Helicobacter pylori bacterial fluid was added, followed by 50 μL of medium until the final concentration reached 1×10^5 CFU/mL.
(3) A blank control was provided with equal amounts of medium solution and bacterial solution as in the experimental group, with at least 3 replicates for each treatment group.
(4) The 96-well plate was placed in a bacterial incubator at 37° C. and incubated at 150 rpm for 48 hours.

Take “Example 2: LSKWLKKLGKLLAG (designated as AMP33)”: the Hemolysis rate in data set [1] (8 μg/mL) was 3.6% and 7.9% and 23%; in data set [1] (16 μg/mL), 2.6% and 1.7% and −0.4%; in data set [1] (32 μg/mL), 0.6% and 4.6% and 3.3%; in data set [1] (64 μg/mL), 0.7% and −0.8% and −2.0%; in data set [1] (80 μg/mL), 10.1% (2×) and 11.1%. This substance also gave a Minimum hemolytic concentration in data set [1] (rabbit erythrocytes) of 64.0 µg/mL. The “Viability of Propionibacterium acnes” value is 94.82 and 113.75 and 94.03 in data set [2] (1 μg/mL); 79.37 and 65.48 and 68.87 in data set [2] (2 μg/mL). In addition, in data set [2] (4 ppm), the “inhibition of Propionibacterium acnes” value is “over 90%”. Further, the “Viability of Escherichia coli” value in data set [3] (1 μg/mL) is 110.11 and 91.93 and 82.94; in data set [3] (2 μg/mL) it was 89.71 and 90.4 and 98.53; in data set [3] (4 μg/mL), 86.48 and 70.83 and 70.35; in data set [3] (8 μg/mL), 78.87 and 50.46 and 73.2; in data set [3] (25 μg/mL), 74.99 and 38.97 and 51.39. Besides, the “inhibition of Escherichia coli” value in data set [3] (25 ppm) is recorded as “over 99%”. Besides, the “Viability of Staphylococcus aureus” value in data set [4] (1 μg/mL) is 117.78 and 116.41 and 116.45; in data set [4] (2 μg/mL) it was 121.60 and 104.84 and 102.77; in data set [4] (4 μg/mL), 88.75 and 109.74 and 132.77; in data set [4] (8 μg/mL), 98.53 and 99.19 and 97.03. In addition, in data set [4] (50 ppm), the “inhibition of Staphylococcus aureus” value is on record as “over 99%”. The “Viability of Candida albicans” value in data set [5] was 53.84 and 70.73 and 66.17. Further, in the data set with Streptococcus mutans, the “inhibition rate of Streptococcus mutans” value is “approximately 100%”. Also, the “inhibitory activity against H. pylori” value in the data set with Helicobacter pylori is given as “approximately 100%”.
